From publication PMC5192239 (Data in Brief, 2016) come the findings set out here.

The test system of data set [1] is O=P(O)(O)O[C@H]1O[C@H](CO)[C@@H](O)[C@H](O)[C@H]1O. Kind of data set: purified protein.
Data set [2] has as its target T1, Pseudomonas aeruginosa PMM/PGM (PaPMM) (Pseudomonas aeruginosa, UniProt P26276).
T1 construct: gene algC
Kind of data set: product formation in coupled G6PDH assay; ESI-MS dephosphorylation of catalytic serine ([…]). It is filed as biochemical.

In data set [3] the target is T1, Pseudomonas aeruginosa PMM/PGM (PaPMM). Put plainly: coupled G6PDH enzyme assay, competitive inhibition fit (text prints Ki in μM; Fig. […] legend prints mM). The format is biochemical.
In data set [4] the target is T2, human phosphoglucomutase 1 (hPGM1) (Homo sapiens, UniProt P36871).
T2 construct: gene PGM1
T2 sequence (P36871 1-562): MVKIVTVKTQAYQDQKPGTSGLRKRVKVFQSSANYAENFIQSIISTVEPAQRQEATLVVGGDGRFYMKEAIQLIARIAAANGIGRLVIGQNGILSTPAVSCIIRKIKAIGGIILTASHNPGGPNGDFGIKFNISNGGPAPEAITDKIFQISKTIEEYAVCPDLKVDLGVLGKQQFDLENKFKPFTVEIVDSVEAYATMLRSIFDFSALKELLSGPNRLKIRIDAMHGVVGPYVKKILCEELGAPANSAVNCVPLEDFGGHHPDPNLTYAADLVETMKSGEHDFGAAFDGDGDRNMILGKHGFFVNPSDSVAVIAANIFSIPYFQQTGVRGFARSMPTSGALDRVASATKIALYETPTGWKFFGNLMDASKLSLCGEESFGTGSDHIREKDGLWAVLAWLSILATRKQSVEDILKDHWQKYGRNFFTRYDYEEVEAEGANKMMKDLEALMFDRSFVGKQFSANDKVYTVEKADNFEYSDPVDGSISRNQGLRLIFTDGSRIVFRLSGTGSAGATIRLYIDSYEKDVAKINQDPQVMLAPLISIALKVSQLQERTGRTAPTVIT
Put plainly: ESI-MS of intact purified protein:[…] phosphorylation of active site serine after incubation. The format is biochemical.

The target of data set [5] is T1, Pseudomonas aeruginosa PMM/PGM (PaPMM). Kind of data set: coupled G6PDH enzyme assay, noncompetitive inhibition fit; also ESI-MS dephosphorylation of active site serine. It is filed as biochemical.

T1 sequence (P26276 2-463): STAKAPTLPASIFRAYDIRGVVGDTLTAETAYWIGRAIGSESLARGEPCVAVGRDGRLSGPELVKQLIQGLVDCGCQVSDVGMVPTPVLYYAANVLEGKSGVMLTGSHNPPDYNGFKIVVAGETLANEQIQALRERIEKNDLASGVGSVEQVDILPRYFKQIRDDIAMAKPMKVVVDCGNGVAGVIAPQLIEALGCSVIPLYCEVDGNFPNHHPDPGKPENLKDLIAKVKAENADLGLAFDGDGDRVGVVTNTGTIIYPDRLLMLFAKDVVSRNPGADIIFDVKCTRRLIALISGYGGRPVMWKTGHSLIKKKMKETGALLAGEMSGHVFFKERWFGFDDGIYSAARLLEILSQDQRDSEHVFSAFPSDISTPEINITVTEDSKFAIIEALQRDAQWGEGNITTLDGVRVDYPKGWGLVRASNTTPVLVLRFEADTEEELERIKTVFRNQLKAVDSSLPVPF

For “Pseudomonas aeruginosa PMM/PGM (PaPMM) (Pseudomonas aeruginosa PAO1)”, the Km in data set [1] came to 28 ± 2.8 µM.

Take `O=C[C@H](O)[C@@H](O)[C@H](O)[C@H](O)COP(=O)(O)O` [G6P, glucose 6-phosphate]: the “product formation in coupled G6PDH assay; ESI-MS dephosphorylation of catalytic” value in data set [2] is recorded as “Enzymatic activity of PaPMM was quantified by measuring the formation of glucose 6-phosphate (G6P)”.

In the case of `O=P(O)(O)O[C@H]1OC[C@@H](O)[C@H](O)[C@H]1O` [X1P, xylose 1-phosphate], the affinity in data set [3], expressed as Ki, was 8.6 ± 0.3 µM.

For the compound `O=C(COP(=O)(O)O)[C@@H](O)[C@H](O)[C@H](O)COP(=O)(O)O` [F16P, fructose 1,6-bisphosphate], in data set [4], the “ESI-MS of intact purified protein: 92% phosphorylation of active site serine aft” value was “Treatment of hPGM1 with F16P was done herein”.

`N[C@H]1C(OP(=O)(O)O)O[C@H](CO)[C@@H](O)[C@@H]1O` (some centres unmarked) [GlcN1P, glucosamine 1-phosphate] displayed a Ki in data set [5] of 307 ± 29 µM.

For orientation: Km means the substrate concentration at which the rate is half of its maximum. For orientation: Ki means the equilibrium dissociation constant of an inhibitor or competing ligand from its target.
